{"source": "patent US20100184638A1", "about": "“Galanin Receptors and Brain Injury” (NeuroTargets, Ltd., priority 2004, published 2010)", "key": {"GALR1 and GALR2": {"system": "GALR1 and GALR2", "details": "cited from earlier work"}, "[1]": {"system": "organotypic hippocampal cultures", "assay": "Staurosporine-induced cell death in organotypic hippocampal cultures (propidium iodide)", "type": "cell-based, mouse", "details": "for percentage cell death: n=4", "experimental": "Organotypic cultures were prepared as previously described (Elliott-Hunt et al. (2002) J. Neurochem. 80 416-425; Stoppini et al. (1991) J. Neurosci. Methods 37 173-182). Briefly, the hippocampi from 5-6 day old pups were rapidly removed under a dissection microscope and sectioned transversely at 400 μm using a McIlwain tissue chopper (Mickle Laboratory Engineering Co. Ltd., Gomshall, UK). The slices were cultured in 95% air and 5% CO2 at 37° C. on a microporous transmembrane biopore membrane (Millipore, Poole, UK), in a 6-well plate, in 50% minimal essential medium with Earle's Salts (Gibco BRL, Paisley, UK) without L-glutamine, […] Hanks Balanced Salt Solution (Gibco BRL), 25% Horse Serum (heat inactivated; Harlan Serum Labs, Loughborough, UK), 5 mg/ml glucose (Sigma Chemical Co., Poole, UK) and […] glutamine (Sigma).\nFourteen day organotypic hippocampal cultures were placed in 0.1% BSA with serum free media for 16 hours before incubation with varying concentrations of glutamic acid for 3 hours or staurosporine for 9 hours. Staurosporine and glutamate are both known to cause excitotoxic damage to such cell cultures (Prehn et al. (1997) J. Neurochem. 68 1679-1685; Ohmori et al. (1996) Brain Res. 743 109-115). Cultures were washed with serum-free medium and incubated for a further 24 hours before imaging. Regional patterns of neuronal injury in the organotypic cultures were observed by performing experiments in the presence of propidium iodide. After membrane injury, the dye enters cells, binds to nucleic acids and accumulates, rendering the cell brightly fluorescent (Vornov et al. (1994) Stroke 25 457-465). […] Neuronal damage in the area encompassing the CA1 region was assessed using the density slice function in NIH Image software (Scion Image, MD, USA) to establish signal above background. The area of the subfields expressing the exclusion dye propidium iodide was measured, and expressed as a percentage of the total area of the subfields as assessed in the bright field image. Furthermore, for consistency in setting the parameters accurately when using the density slice function, the threshold was set against a positive control set of cultures exposed to 10 mM glutamate.\n(SEQ ID NO: 1) (AstraZeneca, Montreal, Quebec, Canada), amyloid-β (1-42) (Aβ (1-42)) and the reverse Aβ (42-1) peptide (American Peptide Company, Sunnyvale, Calif. 93906). Before use in the experiments below, the Aβ (1-42) was induced to form fibrils by pre-incubation in culture medium. Specifically, 0.45 mg of Aβ peptide was dissolved in 20 μl of dimethyl sulfoxide (DMSO-Sigma) and diluted to a 100-μM stock solution in medium, which was then incubated with gentle shaking at room temperature for 24 hours.\nTo further dissect the neuroprotective role played by galanin in a more tractable in vitro system, both primary dispersed and organotypic hippocampal cultures (Elliott-Hunt, 2002) were used. These two techniques are complimentary since the dispersed hippocampal cultures ensure that observed effects are neuron-specific, whilst the organotypic cultures preserve the synaptic and anatomical organisation of the neuronal circuitry (Elliott-Hunt, 2002) as well as retaining many of the functional characteristics found in vivo (Adamschik et al. (2000) Brain Res. Prot. 5 153-158). The effects of staurosporine and glutamate on neuronal cell death in hippocampal cultures (Prehn, 1997; Ohmori, 1996) were studied. Cell death was visualised by propidium iodide staining. Results are expressed as a percentage of the area expressing fluorescence as compared with the untreated “control” cultures."}, "[2]": {"system": "organotypic hippocampal cultures", "assay": "Glutamate-induced cell death in organotypic hippocampal cultures (propidium iodide)", "type": "cell-based, mouse", "details": "4 mM glutamate, 9 hour exposure, n=4", "experimental": "Organotypic cultures were prepared as previously described (Elliott-Hunt et al. (2002) J. Neurochem. 80 416-425; Stoppini et al. (1991) J. Neurosci. Methods 37 173-182). Briefly, the hippocampi from 5-6 day old pups were rapidly removed under a dissection microscope and sectioned transversely at 400 μm using a McIlwain tissue chopper (Mickle Laboratory Engineering Co. Ltd., Gomshall, UK). […]\nStaurosporine and glutamate are both known to cause excitotoxic damage to such cell cultures (Prehn et al. (1997) J. Neurochem. 68 1679-1685; Ohmori et al. (1996) Brain Res. 743 109-115). […] Neuronal damage in the area encompassing the CA1 region was assessed using the density slice function in NIH Image software (Scion Image, MD, USA) to establish signal above background. The area of the subfields expressing the exclusion dye propidium iodide was measured, and expressed as a percentage of the total area of the subfields as assessed in the bright field image. […]\nTo further dissect the neuroprotective role played by galanin in a more tractable in vitro system, both primary dispersed and organotypic hippocampal cultures (Elliott-Hunt, 2002) were used. […] Results are expressed as a percentage of the area expressing fluorescence as compared with the untreated “control” cultures."}, "GALR2": {"system": "GALR2", "details": "cited from earlier work"}}, "note": "Non-standard residues stand in square brackets, D forms with d. Residues, ends and D or L forms follow the SMILES beside them. *: point of attachment. Fmoc = O=C(OCC1c2ccccc2-c2ccccc21)*; Cha = N[C@@H](CC1CCCCC1)C(=O)O; AMC = Cc1cc(=O)oc2cc(N*)ccc12", "data": [{"compound": "Cc1cc(=O)oc2cc(NC(=O)[C@H](CCCCN)NC(=O)[C@H](CC3CCCCC3)NC(=O)OCC3c4ccccc4-c4ccccc43)ccc12", "note": "[Galnon] (Fmoc-[Cha]-Lys-{AMC})", "values": [{"measurement": "activation of other GPCR receptors including the neurotensin receptor", "setting": "GALR1 and GALR2", "result": "also activates a number of other GPCR receptors"}, {"measurement": "agonistic activity at GALR1 and GALR2", "setting": "GALR1 and GALR2", "result": "equally activates and has agonistic activity to both GALR1 and GALR2"}]}, {"compound": "CN[C@@H]1C[C@H]2O[C@@](C)([C@@H]1OC)n1c3ccccc3c3c4c(c5c6ccccc6n2c5c31)C(=O)NC4", "note": "[Staurosporine, staurosporine]", "values": [{"measurement": "percentage cell death", "setting": "[1]; 100 nM staurosporine, galanin knockout organotypic cultures", "result": "65±10", "unit": "%"}, {"measurement": "percentage cell death", "setting": "[1]; 100 nM staurosporine, wild-type organotypic cultures", "result": "40±26", "unit": "%"}, {"measurement": "percentage cell death", "setting": "[1]; 1 μM staurosporine, galanin knockout organotypic cultures", "result": "68±0.5", "unit": "%"}, {"measurement": "percentage cell death", "setting": "[1]; 1 μM staurosporine, wild-type organotypic cultures", "result": "38±8", "unit": "%"}]}, {"compound": "N[C@@H](CCC(=O)O)C(=O)O", "note": "[glutamate, L-glutamic acid]", "values": [{"measurement": "percentage cell death", "setting": "[2]; galanin knockout organotypic cultures", "result": "85±8.6", "unit": "%"}, {"measurement": "percentage cell death", "setting": "[2]; wild-type organotypic cultures", "result": "61±9.3", "unit": "%"}]}, {"compound": "WTLNSAGYLL [AR-M1896]", "values": [{"measurement": "cell death", "setting": "[1]; 100 nM AR-M1896 co-administered with 100 nM staurosporine, wild-type organotypic cultures, p<0.05", "result": "significantly reduced the amount of cell death"}, {"measurement": "reduction of staurosporine-induced cell death", "setting": "[1]; galanin knockout organotypic cultures versus wild-type cultures (data not shown)", "result": "as effective"}, {"measurement": "effect in the absence of staurosporine", "setting": "[1]; organotypic or primary cultures, no staurosporine", "result": "No significant effects"}, {"measurement": "binding specificity for GALR2 compared to GALR1", "setting": "GALR2", "result": 500, "unit": "fold"}]}]}
